From US9597375B2, “Coagulation and fibrinolytic cascades modulator” (The Board of Trustees of the University of Illinios, priority 2005, dated 2017)
“Also recorded” adds a separate entry of the source. Read-outs that look alike come from different tables or passages of the source.

How the values were obtained:
[1] = system: fibrinolysis in pooled normal plasma; assay: Plasma clot lysis model, clotting initiated by calcium ions and thrombin in presence of plasminogen activator; assay type: biochemical, human
Description: In order to study the effect of polyP on fibrinolysis independent of its effect on clotting times, the model was modified such that clotting was initiated by a mixture of calcium ions and thrombin in the presence of uPA (pooled normal plasma supplemented with 1.4 nM uPA). The amount of thrombin was chosen to yield rapid clotting times, permitting analyses to focus on the lytic phase only. […] In the absence of polyP, the clots subsequently lysed, with a 50% lysis time of 61 min in this experiment. […] The magnitude of the effect of polyP75 on the inhibition of fibrinolysis was dependent on the uPA concentration. At high uPA concentrations the effect of polyP75 could be masked, presumably reflecting a balance situation between uPA and polyP within the clot (data not shown).
Microplate-based assays of plasma clotting and fibrinolysis—Some of the clotting assays were conducted in flat-bottom, polystyrene, 96-well plates (Corning). Turbidity, a measure of clot formation, was quantified at 37° C. by measuring the absorbance of light at 405 nm in a VERSAmax microplate reader (Molecular Devices, Sunnyvale, Calif.). Reactions (100 μl final volume) typically contained the following final concentrations: 30% (v/v) human plasma; 8 mM Tris-HCl buffer, pH 7.4; 0.008% (v/v) Tween-20; 10.6 mM calcium chloride; and, variably, 10 nM thrombin. In some experiments, clotting reactions were initiated by calcium ions alone. In this case, a 1.25× reaction mixture of the above-described components (except calcium chloride) was prepared in a final volume of 80 μl per well. Clotting was then initiated by adding 20 μl of 53 mM calcium chloride and absorbance at 405 nm was monitored. In other experiments, clotting was initiated by a mixture of calcium ions and thrombin. In these cases, to the 80 μl reaction mixtures described above were added 10 μl of 106 mM calcium chloride followed immediately by 10 μl of 100 nM thrombin. […]

TFPI = target: T1, TFPI (Homo sapiens, UniProt P10646); assay type: biochemical
T1 construct: Recombinant, full-length human TFPI was a kind gift of Dr. George Broze; gift of Dr. George Broze, Washington University St. Louis
T1 sequence (P10646 29-304): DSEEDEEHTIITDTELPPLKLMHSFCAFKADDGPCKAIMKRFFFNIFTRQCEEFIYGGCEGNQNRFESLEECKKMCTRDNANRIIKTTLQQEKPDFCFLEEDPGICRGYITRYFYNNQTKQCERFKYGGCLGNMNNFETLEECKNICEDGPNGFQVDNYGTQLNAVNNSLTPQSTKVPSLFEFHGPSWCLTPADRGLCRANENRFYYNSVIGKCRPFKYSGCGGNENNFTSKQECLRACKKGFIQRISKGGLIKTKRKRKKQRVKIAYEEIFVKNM
Description: The hypothesis that polyP might block the anticoagulant effect of TFPI was tested. This was examined in a dilute PT assay in which varying concentrations of recombinant TFPI were added to plasma samples. Plasma normally contains relatively low levels of free TFPI, so adding exogenous TFPI can dramatically lengthen PT clotting times.
Coagulometer-based plasma clotting assays—Recombinant human tissue factor was reconstituted into phospholipid vesicles as previously described [18], using a mixture of 20% phosphatidylserine and 80% phosphatidylcholine at a phospholipid:tissue factor molar ratio of 8700:1. Blank phospholipid vesicles (PCPS vesicles) composed of 20% phosphatidylserine and 80% phosphatidylcholine (and no tissue factor) were prepared as described [18]. The thromboplastin reagent for the PT assay was prepared by diluting relipidated tissue factor to a final concentration of 200 ng/ml tissue factor in TBSA buffer (50 mM Tris-HCl pH 7.5, 100 mM NaCl, 0.02% sodium azide, 0.1% (w/v) bovine serum albumin). The thromboplastin reagent for the dilute PT assay was prepared in the same manner as the reagent for the PT assay, except that the relipidated tissue factor was typically diluted to a final concentration of 1 ng/ml tissue factor in TBSA buffer containing 50 μM PCPS vesicles.
The PT, XaT, aPTT and PTT clotting assays were typically performed in a STart coagulometer (Diagnostica Stago) by pre-incubating 50 μl of human plasma with 50 μl of the indicated clotting reagent at 37° C. for the following times: PT and XaT assays, 120 sec; aPTT and PTT assays, 180 sec. Clotting was then initiated by adding 50 μl of 25 mM calcium chloride solution that had been pre-warmed to 37° C. The time to clot formation was then measured relative to the point of addition of calcium chloride. […] When the effect of TFPI on clotting was tested, TFPI was added to plasma at the indicated concentration immediately before use. When the effect of polyP on clotting was tested, polyP was added to the clotting reagent at the indicated concentration. […]

pooled normal plasma = assay: Dilute PT assay; assay type: biochemical, human
Description: The ability of polyP75 to influence the clotting time of a variety of clotting assays was systematically evaluated, employing commonly used plasma clotting assays including the prothrombin time (PT) assay, the partial thromboplastin time (PTT) assay, the activated partial thromboplastin time (aPTT) assay, a factor Xa clotting assay (XaT), and the thrombin time (TT) assay (FIG. 9). The PT assay, which is conducted by adding a thromboplastin reagent (a source of tissue factor activity and calcium ions) to plasma, drives coagulation through the extrinsic, or tissue factor pathway. The PTT and aPTT assays rely on the contact, or intrinsic, pathway of blood clotting. The XaT assay relies on the presence of factor V, prothrombin and fibrinogen in plasma, while the TT assay relies only on the presence of fibrinogen. Therefore, these assays assess different stages of the blood clotting cascades. All were performed in a coagulometer at 37° C.
Coagulometer-based plasma clotting assays—Recombinant human tissue factor was reconstituted into phospholipid vesicles as previously described, using a mixture of 20% phosphatidylserine and 80% phosphatidylcholine at a phospholipid:tissue factor molar ratio of 8700:1. Blank phospholipid vesicles (PCPS vesicles) composed of 20% phosphatidylserine and 80% phosphatidylcholine (and no tissue factor) were prepared as described. […]
The PT, XaT, aPTT and PTT clotting assays were typically performed in a STart coagulometer (Diagnostica Stago) by pre-incubating 50 μl of human plasma with 50 μl of the indicated clotting reagent at 37° C. for the following times: PT and XaT assays, 120 sec; aPTT and PTT assays, 180 sec. […] The time to clot formation was then measured relative to the point of addition of calcium chloride. The TT clotting assay was performed in the same coagulometer as follows: 50 μl human plasma was pre-warmed to 37° C. for 60 sec, after which 50 μl of pre-warmed TT reagent was added and the time to clot formation was measured. […]

[2] = polyP25-75 at 75 μM phosphate equivalents (FIG. 5), short phosphates data not shown

## O=P(O)(O)OP(=O)(O)O [PPi, pyrophosphate]
[1]; [2]
  ability to inhibit fibrinolysis, dependence on chain length: no discernable effect on fibrinolysis
TFPI
  blocking of TFPI anticoagulant effect, dependence on chain length: did not block TFPI anticoagulant function at all

## O=P(O)(O)O [Pi, sodium phosphate]
[1]
  ability to inhibit fibrinolysis, dependence on chain length: no discernable effect on fibrinolysis
TFPI
  blocking of TFPI anticoagulant effect, dependence on chain length: did not block TFPI anticoagulant function at all

## TFPI: Recombinant, full-length human tissue factor pathway inhibitor
Pooled normal plasma; 100 ng/ml TFPI added to pooled normal plasma, no polyP (66 sec without TFPI)
  dilute PT clotting time: over 160 sec
Pooled normal plasma; 200 ng/ml TFPI added, no polyP (59 sec without TFPI)
  dilute PT mean clotting time: 294 s
Pooled normal plasma; TFPI added to pooled normal plasma, no polyP
  effect of added TFPI on dilute PT clotting time (in words): greatly prolonged the dilute PT clotting time; also recorded: substantially prolonged

## sodium tripolyphosphate [polyP3]
[1]; [2]
  ability to inhibit fibrinolysis, dependence on chain length: no discernable effect on fibrinolysis
TFPI; 200 ng/ml TFPI, 75 μM phosphate equivalents in dilute thromboplastin reagent (FIG. 12)
  blocking of TFPI anticoagulant effect, dependence on chain length: did not block TFPI anticoagulant function at all
